Columns and labels:
CRF receptors = biological target: T1, CRF receptors (Homo sapiens, UniProt P34998); test: CRF receptor binding assay (125I-CRF displacement); details: membrane pellets containing CRF receptors; 125I-CRF 100 pM; room temperature for 2 hours; non specific binding defined by 1 uM cold CRF
T1 sequence (P34998 24-415): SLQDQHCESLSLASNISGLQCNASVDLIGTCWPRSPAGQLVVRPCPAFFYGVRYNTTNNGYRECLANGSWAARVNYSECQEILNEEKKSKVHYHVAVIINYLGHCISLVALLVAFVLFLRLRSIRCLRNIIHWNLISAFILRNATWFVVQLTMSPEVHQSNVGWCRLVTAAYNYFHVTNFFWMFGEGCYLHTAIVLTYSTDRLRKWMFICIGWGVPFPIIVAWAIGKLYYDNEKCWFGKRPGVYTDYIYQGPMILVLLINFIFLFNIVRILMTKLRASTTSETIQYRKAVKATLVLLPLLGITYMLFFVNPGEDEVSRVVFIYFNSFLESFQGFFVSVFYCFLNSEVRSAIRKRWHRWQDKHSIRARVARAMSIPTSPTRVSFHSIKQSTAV
Protocol: Assay for CRF Receptor Binding Activity
CRF receptor binding was performed using a modified version of the assay described by Grigoriadis and De Souza (Biochemical, Pharmacological, and Autoradiographic Methods to Study Corticotropin-Releasing Factor Receptors. Methods in Neurosciences, Vol. 5, 1991). Membrane pellets containing CRF receptors were resuspended in 50 mM Tris buffer pH 7.7 containing 10 mM MgCl2 and 2 mM EGTA and centrifuged for 10 minutes at 48000 g. Membranes were washed again and brought to a final concentration of 1500 ug/ml in binding buffer (Tris buffer above with 0.1% BSA, n 0.15 M bacitracin and 0.01 mg/ml aprotinin.). For the binding assay, 100 ul of the membrane preparation was added to 96 well microtube plates containing 100 ul of 125I-CRF (SA 2200 Ci/mmol, final concentration of 100 pM) and 50 ul of drug. Binding was carried out at room temperature for 2 hours. Plates were then harvested on a Brandel 96 well cell harvester and filters were counted for gamma emissions on a Wallac 1205 Betaplate liquid scintillation counter. Non specific binding was defined by 1 uM cold CRF.

IC50 (CRF receptors): 11 nM
melting point: 117 to 118 °C
Compound: CCCN(CCC)c1cc(C)nc2c1c1c(n2-c2c(C)cc(C)cc2C)CCCC1 [Compound 1, N,N-Dipropyl-2-methyl-6,7,8,9-tetrahydro-9-(2,4,6-trimethylphenyl)-5H-pyrido[2,3-b]indol-4-amine]

Reference: patent US6670371B2, “Certain pyrrolopyridine derivatives: novel CRF1 specific ligands” (Neurogen Corporation, priority 1995, dated 2003)
